# Assay results as given in PubChem BioAssay AID330 (DTP/NCI, 2004).
# Values joined by “and” are separate entries in the source; they are usually repeats but may differ in a detail not shown here. Equal values may be shown once. Toxic doses and inconclusive results are not listed.
# Tested on: P388 leukemia ip, CD2F1 mice, survival T/C
# Test: NCI In Vivo Anticancer Drug Screen. Data for tumor model P388 Leukemia (intraperitoneal) in CD2F1 (CDF1) mice
# Details: endpoint: median survival time, higher = longer survival
# In short: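 Mice carrying the transplanted tumor received test compound or vehicle. Survival was recorded in each group, and the value is the treated-group measurement divided by that of the vehicle-treated control group.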
# [1] = dose: 6.25 mg/kg/injection, schedule: Q01DX009 (ip), vehicle: saline with Tween-80
# [2] = dose: 12.5 mg/kg/injection, schedule: Q01DX009 (ip), vehicle: saline with Tween-80
# [3] = dose: 12.5 mg/kg/injection, schedule: Q04DX003 (ip), vehicle: saline
# [4] = dose: 25.0 mg/kg/injection, schedule: Q04DX003 (ip), vehicle: saline
# [5] = dose: 50.0 mg/kg/injection, schedule: Q04DX003 (ip), vehicle: saline
# [6] = dose: 50.0 mg/kg/injection, schedule: Q01DX005 (ip), vehicle: Klucel (hydroxypropylcellulose) (HPC)
# [7] = dose: 100.0 mg/kg/injection, schedule: Q01DX005 (ip), vehicle: Klucel (hydroxypropylcellulose) (HPC)
# [8] = dose: 200.0 mg/kg/injection, schedule: Q01DX005 (ip), vehicle: Klucel (hydroxypropylcellulose) (HPC)
# [9] = dose: 25.0 mg/kg/injection, schedule: Q01DX009 (ip), vehicle: water
# [10] = dose: 50.0 mg/kg/injection, schedule: Q01DX009 (ip), vehicle: water
# [11] = dose: 100.0 mg/kg/injection, schedule: Q01DX009 (ip), vehicle: water
# [12] = dose: 200.0 mg/kg/injection, schedule: Q01DX009 (ip), vehicle: water
# [13] = dose: 50.0 mg/kg/injection, schedule: Q01DX005 (ip), vehicle: saline with Tween-80
# [14] = dose: 100.0 mg/kg/injection, schedule: Q01DX005 (ip), vehicle: saline with Tween-80
# [15] = dose: 200.0 mg/kg/injection, schedule: Q01DX005 (ip), vehicle: saline with Tween-80
# [16] = dose: 100.0 mg/kg/injection, schedule: Q01DX009 (ip), vehicle: saline with Tween-80
# [17] = dose: 50.0 mg/kg/injection, schedule: Q01DX009 (ip), vehicle: saline
# [18] = dose: 100.0 mg/kg/injection, schedule: Q01DX009 (ip), vehicle: saline
# [19] = dose: 200.0 mg/kg/injection, schedule: Q01DX009 (ip), vehicle: saline
smiles,measurement,setting,value
Cc1cc2ccccc2c[n+]1C,T/C,"dose: 1.56 mg/kg/injection, schedule: Q01DX009 (ip), vehicle: saline with Tween-80",105 % of control
same,T/C,"dose: 3.12 mg/kg/injection, schedule: Q01DX009 (ip), vehicle: saline with Tween-80",102 % of control
same,T/C,[1],96 % of control
same,T/C,[2],105 % of control
same,T/C,[3],100 % of control
same,T/C,[4],100 % of control
same,T/C,[5],100 % of control
CC(C)CC1CCCC12NC(=O)NC2=O (configuration not stated),T/C,[6],97 % of control
same,T/C,[7],89 % of control
same,T/C,[8],93 % of control
[I][Pt+2][I].[NH-]CC[NH-],T/C,"dose: 2.75 mg/kg/injection, schedule: Q01DX009 (ip), vehicle: Klucel (hydroxypropylcellulose) (HPC)",87 % of control
same,T/C,"dose: 5.5 mg/kg/injection, schedule: Q01DX009 (ip), vehicle: Klucel (hydroxypropylcellulose) (HPC)",117 % of control
same,T/C,"dose: 11.0 mg/kg/injection, schedule: Q01DX009 (ip), vehicle: Klucel (hydroxypropylcellulose) (HPC)",109 % of control
same,T/C,"dose: 22.0 mg/kg/injection, schedule: Q01DX009 (ip), vehicle: Klucel (hydroxypropylcellulose) (HPC)",111 % of control
CC(=NCCN=C(C)c1cc(C)ccc1O)c1cc(C)ccc1O,T/C,"dose: 100.0 mg/kg/injection, schedule: Q04DX002 (ip), vehicle: Klucel (hydroxypropylcellulose) (HPC)",101 % of control
same,T/C,"dose: 200.0 mg/kg/injection, schedule: Q04DX002 (ip), vehicle: Klucel (hydroxypropylcellulose) (HPC)",100 % of control
same,T/C,"dose: 400.0 mg/kg/injection, schedule: Q04DX002 (ip), vehicle: Klucel (hydroxypropylcellulose) (HPC)",99 % of control
OCc1cccc2c1C(O)c1ccccc1-2 (configuration not stated),T/C,[6],100 % of control
same,T/C,[7],104 % of control
same,T/C,[8],100 % of control
NC(Cc1ccccc1)C(=O)OCN1C(=O)C2C3C=CC(C2C1=O)C1C(=O)N(COC(=O)C(N)Cc2ccccc2)C(=O)C31 (configuration not stated),T/C,[9],100 % of control
same,T/C,[10],104 % of control
same,T/C,[11],114 % of control
same,T/C,[12],124 % of control
O=C1c2ccccc2C(=O)c2c(-c3ccccc3)ccc(-c3ccccc3)c21,T/C,[13],93 % of control
same,T/C,[14],99 % of control
same,T/C,[15],87 % of control
CCCCN(CCCC)CC(O)c1cc(-c2ccc(C(F)(F)F)cc2)nc(-c2ccc(C(F)(F)F)cc2)c1 (configuration not stated),T/C,[1],109 % of control
same,T/C,[2],109 % of control
same,T/C,"dose: 25.0 mg/kg/injection, schedule: Q01DX009 (ip), vehicle: saline with Tween-80",100 % of control
NC(=O)c1cnn(CCOS(=O)(=O)O)c1N,T/C,"dose: 12.5 mg/kg/injection, schedule: Q01DX009 (ip), vehicle: water",103 % of control
same,T/C,[9],101 % of control
same,T/C,[10],108 % of control
same,T/C,[11],107 % of control
same,T/C,[12],103 % of control
CCOC12NC(=O)N(C)C1(OCC)C(=O)N(C)C(=O)N2C (configuration not stated),T/C,"dose: 50.0 mg/kg/injection, schedule: Q01DX009 (ip), vehicle: saline with Tween-80",91 % of control
same,T/C,[16],92 % of control
same,T/C,"dose: 200.0 mg/kg/injection, schedule: Q01DX009 (ip), vehicle: saline with Tween-80",88 % of control
COc1ccc2c(c1)CN(C)CO2,T/C,[13],103 % of control
same,T/C,[14],102 % of control
same,T/C,[15],107 % of control
CC1CC(C)/C(=N/NC(N)=S)C(C(O)CC2CC(=O)NC(=O)C2)C1 (configuration not stated),T/C,[13],109 % of control
same,T/C,[14],105 % of control
same,T/C,[15],104 % of control
Cc1ncc(Cn2c(C)c(CCO)sc2=S)c(N)n1,T/C,[17],99 % of control
same,T/C,[18],101 % of control
same,T/C,[19],108 % of control
CCOC(=O)CNCc1cccnc1,T/C,[3],103 % of control
same,T/C,[4],106 % of control and 94 % of control
same,T/C,[5],100 % of control and 103 % of control
same,T/C,"dose: 100.0 mg/kg/injection, schedule: Q04DX003 (ip), vehicle: saline",104 % of control and 94 % of control
same,T/C,"dose: 200.0 mg/kg/injection, schedule: Q04DX003 (ip), vehicle: saline",97 % of control
O=[N+]([O-])c1ccc(N2CCN(Cc3ccccc3)CC2)c2c1no[n+]2[O-],T/C,"dose: 37.5 mg/kg/injection, schedule: Q04DX003 (ip), vehicle: saline",100 % of control
same,T/C,"dose: 37.5 mg/kg/injection, schedule: Q04DX003 (ip), vehicle: suspension in saline",104 % of control
same,T/C,"dose: 75.0 mg/kg/injection, schedule: Q04DX003 (ip), vehicle: saline",97 % of control
same,T/C,"dose: 75.0 mg/kg/injection, schedule: Q04DX003 (ip), vehicle: suspension in saline",120 % of control
same,T/C,"dose: 150.0 mg/kg/injection, schedule: Q04DX003 (ip), vehicle: saline",100 % of control
same,T/C,"dose: 150.0 mg/kg/injection, schedule: Q04DX003 (ip), vehicle: suspension in saline",109 % of control
same,T/C,"dose: 300.0 mg/kg/injection, schedule: Q04DX003 (ip), vehicle: saline",100 % of control
same,T/C,"dose: 300.0 mg/kg/injection, schedule: Q04DX003 (ip), vehicle: suspension in saline",104 % of control
Cn1c(=O)c2c(ncn2CCSc2ncnc3nc[nH]c23)n(C)c1=O,T/C,[17],97 % of control
same,T/C,[18],105 % of control
same,T/C,[19],114 % of control
CC(=O)N1c2ccccc2Sc2ccc3ccc(C(=O)CCl)cc3c21,T/C,[16],115 % of control
COc1ccc2c(c1)c1ccnc3ccc(=O)n2c31,T/C,"dose: 0.83 mg/kg/injection, schedule: Q01DX009 (ip), vehicle: saline with Tween-80",98 % of control
same,T/C,"dose: 1.65 mg/kg/injection, schedule: Q01DX009 (ip), vehicle: saline with Tween-80",109 % of control
same,T/C,"dose: 3.29 mg/kg/injection, schedule: Q01DX009 (ip), vehicle: saline with Tween-80",109 % of control
same,T/C,"dose: 6.58 mg/kg/injection, schedule: Q01DX009 (ip), vehicle: saline with Tween-80",109 % of control
CCOC(=O)C(=[N+]=[N-])C(=O)OCC12CCC=C1CC1(CC2)OCCO1 (configuration not stated),T/C,[13],101 % of control
same,T/C,[14],108 % of control
same,T/C,[15],102 % of control
CC1CN2CCOC2(C)O1 (configuration not stated),T/C,"dose: 60.0 mg/kg/injection, schedule: Q01DX005 (ip), vehicle: saline",106 % of control
same,T/C,"dose: 120.0 mg/kg/injection, schedule: Q01DX005 (ip), vehicle: saline",102 % of control
same,T/C,"dose: 240.0 mg/kg/injection, schedule: Q01DX005 (ip), vehicle: saline",101 % of control
CCC1CC2CN(CCc3c([nH]c4ccccc34)C(C(=O)OC)(c3cc4c(cc3OC)N(C)C3C(O)(C(=O)OC)C(OC(C)=O)C5(CC)C=CCN6CCC43C65)C2)C1 (configuration not stated),T/C,"dose: 0.05 mg/kg/injection, schedule: Q01DX009 (ip), vehicle: Klucel (hydroxypropylcellulose) (HPC)",123 % of control
same,T/C,"dose: 0.06 mg/kg/injection, schedule: Q01DX009 (ip), vehicle: water",124 % of control
same,T/C,"dose: 0.25 mg/kg/injection, schedule: Q04DX003 (ip), vehicle: water",150 % of control
same,T/C,"dose: 0.4 mg/kg/injection, schedule: Q01DX009 (ip), vehicle: Klucel (hydroxypropylcellulose) (HPC)",169 % of control
same,T/C,"dose: 0.5 mg/kg/injection, schedule: Q04DX003 (ip), vehicle: water",160 % of control
same,T/C,"dose: 0.8 mg/kg/injection, schedule: Q01DX009 (ip), vehicle: Klucel (hydroxypropylcellulose) (HPC)",169 % of control
same,T/C,"dose: 1.0 mg/kg/injection, schedule: Q04DX003 (ip), vehicle: water",223 % of control
same,T/C,"dose: 2.0 mg/kg/injection, schedule: Q04DX003 (ip), vehicle: water",232 % of control
same,T/C,"dose: 4.0 mg/kg/injection, schedule: Q01DX009 (ip), vehicle: water",115 % of control
O=C(Cc1c[nH]c2ccccc12)Nc1nncs1,T/C,"dose: 100.0 mg/kg/injection, schedule: Q04DX002 (ip), vehicle: saline with Tween-80",97 % of control
same,T/C,"dose: 200.0 mg/kg/injection, schedule: Q04DX002 (ip), vehicle: saline with Tween-80",97 % of control
same,T/C,"dose: 400.0 mg/kg/injection, schedule: Q04DX002 (ip), vehicle: saline with Tween-80",110 % of control
Cc1ccnc(-n2c(N)cc(=O)[nH]c2=S)c1,T/C,"dose: 50.0 mg/kg/injection, schedule: Q01DX001 (ip), vehicle: saline with Tween-80",86 % of control
same,T/C,"dose: 100.0 mg/kg/injection, schedule: Q01DX001 (ip), vehicle: saline with Tween-80",118 % of control
same,T/C,"dose: 200.0 mg/kg/injection, schedule: Q01DX001 (ip), vehicle: saline with Tween-80",100 % of control
Cc1nc(Nc2c(C)cccc2C)c2c(-c3ccccc3)c[nH]c2n1,T/C,[6],99 % of control
same,T/C,[7],94 % of control
same,T/C,[8],92 % of control
